Experimental data as given in patent US20260285850A1, “SUBSTITUTED OXAZOLIDINONES AND IMIDAZOLINONES AS HERBICIDES” (FMC CORPORATION, priority 2023, published 2026).

Assays:
Assay type in all cases: in vivo
[1] = tested on: barnyardgrass (Echinochloa crus-galli); test: Test A preemergence soil spray, visual injury rating 0-100; settings: 10 days, 0 = no effect, 100 = complete control
How it was run: (§1)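 Grow plants in loam soil blended with sand. Apply formulated compound (non-phytotoxic solvent, surfactant) as a directed soil spray before emergence, or to plants at the one- to two-leaf stage after emergence. Hold in greenhouse 10 days, then rate injury visually versus untreated controls on a 0-100 scale.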

[2] = tested on: blackgrass (Alopecurus myosuroides); test: as above; settings: 10 days, 0 = no effect, 100 = complete control
How it was run: as §1

[3] = tested on: corn (Zea mays); test: as above; settings: 10 days, 0 = no effect, 100 = complete control
How it was run: as §1

[4] = tested on: green foxtail (Setaria viridis); test: as above; settings: 10 days, 0 = no effect, 100 = complete control
How it was run: as §1

[5] = tested on: kochia (Bassia scoparia); test: as above; settings: 10 days, 0 = no effect, 100 = complete control
How it was run: as §1

[6] = tested on: oat, wild (wild oat, Avena fatua); test: as above; settings: 10 days, 0 = no effect, 100 = complete control
How it was run: as §1

[7] = tested on: palmer (palmer amaranth, palmer pigweed, Amaranthus palmeri); test: as above; settings: 10 days, 0 = no effect, 100 = complete control
How it was run: as §1

[8] = tested on: ragweed (common ragweed, Ambrosia artemisiifolia); test: as above; settings: 10 days, 0 = no effect, 100 = complete control
How it was run: as §1

[9] = tested on: ryegrass, Italian (italian ryegrass, Lolium multiflorum); test: as above; settings: 10 days, 0 = no effect, 100 = complete control
How it was run: as §1

[10] = tested on: soybean (Glycine max); test: as above; settings: 10 days, 0 = no effect, 100 = complete control
How it was run: as §1

[11] = tested on: wheat (Triticum aestivum); test: as above; settings: 10 days, 0 = no effect, 100 = complete control
How it was run: as §1

[12] = tested on: barnyardgrass (Echinochloa crus-galli); test: Test A postemergence application, visual injury rating 0-100; settings: 10 days
How it was run: as §1

[13] = tested on: blackgrass (Alopecurus myosuroides); test: as above; settings: 10 days
How it was run: as §1

[14] = tested on: corn (Zea mays); test: as above; settings: 10 days
How it was run: as §1

[15] = tested on: galium (catchweed bedstraw, Galium aparine); test: as above; settings: 10 days
How it was run: as §1

[16] = tested on: green foxtail (Setaria viridis); test: as above; settings: 10 days
How it was run: as §1

[17] = tested on: horseweed (Erigeron canadensis); test: as above; settings: 10 days
How it was run: as §1

[18] = tested on: kochia (Bassia scoparia); test: as above; settings: 10 days
How it was run: as §1

[19] = tested on: oat, wild (wild oat, Avena fatua); test: as above; settings: 10 days
How it was run: as §1

[20] = tested on: palmer (palmer amaranth, palmer pigweed, Amaranthus palmeri); test: as above; settings: 10 days
How it was run: as §1

[21] = tested on: ragweed (common ragweed, Ambrosia artemisiifolia); test: as above; settings: 10 days
How it was run: as §1

[22] = tested on: ryegrass, Italian (italian ryegrass, Lolium multiflorum); test: as above; settings: 10 days
How it was run: as §1

[23] = tested on: soybean (Glycine max); test: as above; settings: 10 days
How it was run: as §1

[24] = tested on: wheat (Triticum aestivum); test: as above; settings: 10 days
How it was run: as §1

[25] = tested on: barnyardgrass (Echinochloa crusgalli); test: Test B flooded paddy test, visual plant response rating 0-100; settings: 250 g ai/ha, Flood, applied to paddy water, evaluated after 13 days
How it was run: (§2)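 Visual evaluation after 13 days. Water-applied treatment, 3 cm flood depth held constant, plants at 2-leaf stage at treatment.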

[26] = tested on: ducksalad (Heteranthera limosa); test: as above; settings: 250 g ai/ha, Flood, applied to paddy water, evaluated after 13 days
How it was run: as §2

[27] = tested on: rice (Oryza sativa); test: as above; settings: 250 g ai/ha, Flood, applied to paddy water, evaluated after 13 days
How it was run: as §2

[28] = tested on: sedge, umbrella (small-flower umbrella sedge, Cyperus difformis); test: as above; settings: 250 g ai/ha, Flood, applied to paddy water, evaluated after 13 days
How it was run: as §2

[29] = 31 g ai/ha, postemergence, 0 = no effect, 100 = complete control
[30] = Postemergence, 125 g ai/ha, 0 is no effect, 100 is complete control

## CCOC(=O)C1C=CC(NC(=O)C2(C)CN(c3cc(F)cc(Cl)c3)C(=O)O2)C1 (stereo not shown) [Compound 3]
[1]; 31 g ai/ha
  Barnyardgrass plant response rating (0-100): 90
[1]; 125 g ai/ha
  Barnyardgrass plant response rating (0 to 100 scale): 100
[2]; 31 g ai/ha
  Blackgrass plant response rating (0-100): 0
[2]; 125 g ai/ha
  Blackgrass plant response rating (0 to 100 scale): 70
[3]; 31 g ai/ha
  Corn plant response rating (0-100): 50
[3]; 125 g ai/ha
  Corn plant response rating (0 to 100 scale): 50
[4]; 31 g ai/ha
  Foxtail, Green plant response rating (0-100): 30
[4]; 125 g ai/ha
  Foxtail, Green plant response rating (0 to 100 scale): 100
[5]; 31 g ai/ha
  Kochia plant response rating (0-100): 70
[5]; 125 g ai/ha
  Kochia plant response rating (0 to 100 scale): 100
[6]; 31 g ai/ha
  Oat, Wild plant response rating (0-100): 10
[6]; 125 g ai/ha
  Oat, Wild plant response rating (0 to 100 scale): 90
[7]; 31 g ai/ha
  Amaranth, Palmer plant response rating (0-100): 80
[7]; 125 g ai/ha
  Amaranth, Palmer plant response rating (0 to 100 scale): 100
[8]; 31 g ai/ha
  Ragweed plant response rating (0-100): 10
[8]; 125 g ai/ha
  Ragweed plant response rating (0 to 100 scale): 30
[9]; 31 g ai/ha
  Ryegrass, Italian plant response rating (0-100): 50
[9]; 125 g ai/ha
  Ryegrass, Italian plant response rating (0 to 100 scale): 90
[10]; 31 g ai/ha
  Soybean plant response rating (0-100): 20
[10]; 125 g ai/ha
  Soybean plant response rating (0 to 100 scale): 80
[11]; 31 g ai/ha
  Wheat plant response rating (0-100): 50
[11]; 125 g ai/ha
  Wheat plant response rating (0 to 100 scale): 90
[12]; [29]
  Barnyardgrass plant response rating (0-100): 100
[12]; [30]
  Barnyardgrass plant response rating (0 to 100 scale): 100
[13]; [29]
  Blackgrass plant response rating (0-100): 80
[13]; [30]
  Blackgrass plant response rating (0 to 100 scale): 90
[14]; [29]
  Corn plant response rating (0-100): 100
[14]; [30]
  Corn plant response rating (0 to 100 scale): 100
[15]; [29]
  Galium plant response rating (0-100): 80
[15]; [30]
  Galium plant response rating (0 to 100 scale): 90
[16]; [29]
  Foxtail, Green plant response rating (0-100): 90
[16]; [30]
  Foxtail, Green plant response rating (0 to 100 scale): 90
[17]; [29]
  Horseweed plant response rating (0-100): 50
[17]; [30]
  Horseweed plant response rating (0 to 100 scale): 80
[18]; [29]
  Kochia plant response rating (0-100): 70
[18]; [30]
  Kochia plant response rating (0 to 100 scale): 70
[19]; [29]
  Oat, Wild plant response rating (0-100): 90
[19]; [30]
  Oat, Wild plant response rating (0 to 100 scale): 90
[20]; [29]
  Amaranth, Palmer plant response rating (0-100): 50
[20]; [30]
  Amaranth, Palmer / Pigweed, Palmer plant response rating (0 to 100 scale): 70
[21]; [29]
  Ragweed plant response rating (0-100): 50
[21]; [30]
  Ragweed plant response rating (0 to 100 scale): 80
[22]; [29]
  Ryegrass, Italian plant response rating (0-100): 80
[22]; [30]
  Ryegrass, Italian plant response rating (0 to 100 scale): 90
[23]; [29]
  Soybean plant response rating (0-100): 90
[23]; [30]
  Soybean plant response rating (0 to 100 scale): 90
[24]; [29]
  Wheat plant response rating (0-100): 90
[24]; [30]
  Wheat plant response rating (0 to 100 scale): 90
[25]
  Plant response rating, Barnyardgrass (0 to 100 scale, 0 is no effect and 100 is complete control): 95
[26]
  Plant response rating, Ducksalad (0 to 100 scale, 0 is no effect and 100 is complete control): 90
[27]
  Plant response rating, Rice (0 to 100 scale, 0 is no effect and 100 is complete control): 70
[28]
  Plant response rating, Sedge, Umbrella (0 to 100 scale, 0 is no effect and 100 is complete control): 100
